Reference: US10472341B2, “Bicyclic tetrahydrothiazepine derivatives useful for the treatment of neoplastic and/or infectious diseases” (APEIRON BIOLOGICS AG, priority 2015, dated 2019)

How the values were obtained:
[1] = tested on: NK cells & K562 leukemia cells; assay: NK cells alone or in co-culture with K562 leukemia cells: IFN-gamma, TNF-alpha, granzyme, CD25+CD69+; type: cell-based, human
Protocol: Isolated PBMCs, NK cells or CD8 positive cells were plated in Xvivo medium at 1.5*10^5 cells per in 96 well culture plates in the presence of 0.3*10^4 tumor cells where indicated. Cytokine secretion was determined by ELISA, immune cell activation (using Beckman-Coulter Abs CD25-PC5, CD69-PC7), cell viability and numbers by flow cytometry (Beckman-Coulter FC500 or Gallios) using 7-AAD exclusion as criterion for living cells. One of the physiological functions of NK cells in anti-tumor immunity is the recognition and destruction of tumor cells that have a low expression of MHC-molecules, thus avoiding recognition by CD8 T cells. Downregulation of MHC molecules is often actively mediated by an infecting virus or occurs during development of malignant neoplasms. The […] leukemia cell line expresses only very low amounts of MHC-molecules and thus is often used as a model system to investigate anti-tumor NK cell reactivity. NK cells were isolated from PBMCs and were incubated with and without compounds, either alone or in co-culture with K562 leukemia cells.

K562 leukemia cells = assay: Living tumor cells (K562) in the presence of NK cells; type: cell-based, human
Protocol: Isolated PBMCs, NK cells or CD8 positive cells were plated in Xvivo medium at 1.5*10^5 cells per in 96 well culture plates in the presence of 0.3*10^4 tumor cells where indicated. Cytokine secretion was determined by ELISA, immune cell activation (using Beckman-Coulter Abs CD25-PC5, CD69-PC7), cell viability and numbers by flow cytometry (Beckman-Coulter FC500 or Gallios) using 7-AAD exclusion as criterion for living cells. NK cells were isolated from PBMCs and were incubated with and without compounds, either alone or in co-culture with K562 leukemia cells.

## CCCCNC(=O)c1ccc2c(c1)N(Cc1ccc(OC(F)(F)F)cc1)C(=O)[C@@H](N)CS2(=O)=O.Cl [Example 67, (3R)-3-amino-N-butyl-1,1,4-trioxo-5-{[4-(trifluoromethoxy)phenyl]methyl}-2,3,4,5-tetrahydro-1λ^6,5-benzothiazepine-7-carboxamide hydrochloride]
[1]; 0.03 μM, NK cells & K562
  IFN-gamma [ng/ml] Avg: 7.47 ng/mL
  TNF-alpha [ng/ml] avg: 0.21 ng/mL
[1]; 0.03 μM, NK cells only
  IFN-gamma [ng/ml] Avg: below
  TNF-alpha [ng/ml] avg: below
[1]; 0.1 μM, NK cells & K562
  IFN-gamma [ng/ml] Avg: 10.14 ng/mL
  TNF-alpha [ng/ml] avg: 0.26 ng/mL
[1]; 0.1 μM, NK cells only
  IFN-gamma [ng/ml] Avg: below
  TNF-alpha [ng/ml] avg: below
[1]; 0.3 μM, NK cells & K562
  IFN-gamma [ng/ml] Avg: 11.24 ng/mL
  TNF-alpha [ng/ml] avg: 0.33 ng/mL
[1]; 0.3 μM, NK cells only
  IFN-gamma [ng/ml] Avg: below
  TNF-alpha [ng/ml] avg: below
[1]; 1 μM, NK cells & K562
  IFN-gamma [ng/ml] Avg: 16.40 ng/mL
  TNF-alpha [ng/ml] avg: 0.57 ng/mL
[1]; 1 μM, NK cells only
  IFN-gamma [ng/ml] Avg: below
  TNF-alpha [ng/ml] avg: below
[1]; 3 μM, NK cells & K562
  IFN-gamma [ng/ml] Avg: 17.80 ng/mL
  TNF-alpha [ng/ml] avg: 0.58 ng/mL
[1]; 3 μM, NK cells only
  IFN-gamma [ng/ml] Avg: below
  TNF-alpha [ng/ml] avg: below
[1]; 10 μM, NK cells & K562
  IFN-gamma [ng/ml] Avg: 22.65 ng/mL
  TNF-alpha [ng/ml] avg: 0.80 ng/mL
[1]; 10 μM, NK cells only
  IFN-gamma [ng/ml] Avg: below
  TNF-alpha [ng/ml] avg: below
[1]; 30 μM, NK cells & K562
  IFN-gamma [ng/ml] Avg: 19.98 ng/mL
  TNF-alpha [ng/ml] avg: 0.79 ng/mL
[1]; 30 μM, NK cells only
  IFN-gamma [ng/ml] Avg: below
  TNF-alpha [ng/ml] avg: below
[1]; NK cells & K562, 0.03 μM
  CD25+CD69+: 6.90 % gated
  Granzyme: 0.65 ng/mL
[1]; NK cells & K562, 0.1 μM
  CD25+CD69+: 8.44 % gated
  Granzyme: 0.93 ng/mL
[1]; NK cells & K562, 0.3 μM
  CD25+CD69+: 9.68 % gated
  Granzyme: 1.01 ng/mL
[1]; NK cells & K562, 1 μM
  CD25+CD69+: 18.80 % gated
  Granzyme: 1.47 ng/mL
[1]; NK cells & K562, 3 μM
  CD25+CD69+: 21.66 % gated
  Granzyme: 1.62 ng/mL
[1]; NK cells & K562, 10 μM
  CD25+CD69+: 31.98 % gated
  Granzyme: 2.52 ng/mL
[1]; NK cells & K562, 30 μM
  CD25+CD69+: 35.89 % gated
  Granzyme: 2.43 ng/mL
[1]; NK cells in co-culture with K562 leukemia cells
  production of IFN-gamma and TNF-alpha: enhanced production of both cytokines specifically upon tumor cell contact
[1]; NK cells in the absence of tumor cells
  enhancement of IFN-gamma and TNF-alpha production: such effect was not detected in the absence of tumor cells
[1]; NK cells only, 0.03 μM
  CD25+CD69+: 0.05 % gated
  Granzyme: 0.08 ng/mL
[1]; NK cells only, 0.1 μM
  CD25+CD69+: 0.06 % gated
  Granzyme: 0.09 ng/mL
[1]; NK cells only, 0.3 μM
  CD25+CD69+: 0.15 % gated
  Granzyme: 0.08 ng/mL
[1]; NK cells only, 1 μM
  CD25+CD69+: 0.39 % gated
  Granzyme: 0.06 ng/mL
[1]; NK cells only, 3 μM
  CD25+CD69+: 0.47 % gated
  Granzyme: 0.12 ng/mL
[1]; NK cells only, 10 μM
  CD25+CD69+: 0.95 % gated
  Granzyme: 0.15 ng/mL
[1]; NK cells only, 30 μM
  CD25+CD69+: 1.24 % gated
  Granzyme: 0.25 ng/mL
K562 leukemia cells; K562 only, 0.3 μM
  Living tumor cells: 22199.00
K562 leukemia cells; K562 only, 3 μM
  Living tumor cells: 20750.33
K562 leukemia cells; K562 only, 30 μM
  Living tumor cells: 22719.33
K562 leukemia cells; NK cells & K562, 0.01 μM
  Living tumor cells: 709.00
K562 leukemia cells; NK cells & K562, 0.03 μM
  Living tumor cells: 779.67
K562 leukemia cells; NK cells & K562, 0.1 μM
  Living tumor cells: 712.67
K562 leukemia cells; NK cells & K562, 0.3 μM
  Living tumor cells: 676.00
K562 leukemia cells; NK cells & K562, 1 μM
  Living tumor cells: 623.33
K562 leukemia cells; NK cells & K562, 3 μM
  Living tumor cells: 620.33
K562 leukemia cells; NK cells & K562, 10 μM
  Living tumor cells: 611.67
K562 leukemia cells; NK cells & K562, 30 μM
  Living tumor cells: 632.00
